These results are taken from patent US20230348401A1, “Inhibitors of Glucose-6-phosphate Dehydrogenase and Uses Thereof” (The Trustees of Princeton University, priority 2020, published 2023).

This assay has as its target G6PD (Homo sapiens, UniProt P11413). Briefly: G6PD enzymatic activity by diaphorase-coupled assay.
The mark [1] stands for this setting: Normalized in vitro IC50, Table 1, diaphorase-coupled biochemical assay, normalization to an intraplate control.

Where “and” joins values, the source holds several entries; their conditions need not be identical. Equal entries are not always repeated. Where two headings read alike, the source gives them in different places. Some results are limits rather than exact numbers.

G6PD, sequence (P11413 28-515): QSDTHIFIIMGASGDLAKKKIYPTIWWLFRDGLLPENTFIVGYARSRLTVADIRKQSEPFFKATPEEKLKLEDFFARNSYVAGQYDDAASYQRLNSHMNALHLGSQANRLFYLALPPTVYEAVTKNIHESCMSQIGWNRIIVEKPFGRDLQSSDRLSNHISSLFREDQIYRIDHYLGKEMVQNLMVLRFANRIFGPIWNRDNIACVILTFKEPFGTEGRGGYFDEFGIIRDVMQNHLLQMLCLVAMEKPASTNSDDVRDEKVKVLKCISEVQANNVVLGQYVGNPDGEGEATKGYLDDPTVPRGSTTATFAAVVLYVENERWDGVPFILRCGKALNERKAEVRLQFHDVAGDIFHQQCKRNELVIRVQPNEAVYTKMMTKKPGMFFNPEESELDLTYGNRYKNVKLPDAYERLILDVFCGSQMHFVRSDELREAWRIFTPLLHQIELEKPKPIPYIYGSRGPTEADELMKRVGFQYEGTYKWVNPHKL

Regarding `C#CCC1(COc2cc(C#N)cc(Nc3ncc4c(n3)CCCCC4=O)c2)N=N1` [Compound 0095], the IC50 is greater than 1000 µM. Turning to `COC(=O)c1ccc(COc2cc(C#N)cc(Nc3ncc4c(n3)CCCCC4=O)c2)cc1` [Compound 0096], the IC50 was greater than 1000 µM.

Consider `N#Cc1cc(Nc2ncc3c(n2)CCCCC3=O)cc(OCC2CC2)c1` [Compound 0097], for which the IC50 is less than 1 µM. In turn, `N#Cc1cc(Nc2ncc3c(n2)CCCCC3=O)cc(OCC2CCC2)c1` [Compound 0098] registered an IC50 of 1 to 1000 µM.

Consider `N#Cc1cc(Nc2ncc3c(n2)CCCCC3=O)cc(OCC2CCCC2)c1` [Compound 0099], for which the IC50 lay in the range of 1 to 1000 µM.

For `N#Cc1cc(Nc2ncc3c(n2)CCCCC3=O)cc(OC(c2ccccc2)c2ccccc2)c1` [Compound 0100], the IC50 fell in the range of 1 to 1000 µM. Same read-out and setting: the figure for `CCC(CC)Oc1cc(C#N)cc(Nc2ncc3c(n2)CCCCC3=O)c1` [Compound 0101] is 1 to 1000 µM. Still for that read-out and setting: under `N#Cc1cc(Nc2ncc3c(n2)CCCCC3=O)cc(OCCc2ccccc2)c1` [Compound 0103] stands less than 1 µM; under `N#Cc1cc(Nc2ncc3c(n2)CCCCC3=O)cc(OCC23C[C@H]4C[C@@H](C2)C[C@@H](C3)C4)c1` [Compound 0105], greater than 1000 µM. Same read-out and setting: the figure for `CC(C)(C)COc1cc(C#N)cc(Nc2ncc3c(n2)CCCCC3=O)c1` [Compound 0106] is greater than 1000 µM.

The compound `N#Cc1cc(Nc2ncc3c(n2)CCCCC3=O)cc(OCc2cccnc2)c1` [Compound 0118] returned an IC50 of less than 1 µM. On the same count and under the same terms, the figure for `N#Cc1cc(Nc2ncc3c(n2)CCCCC3=O)cc(OCc2ccccn2)c1` [Compound 0121] is less than 1 µM. The same measure, in the same setting: the figure for `COc1ccccc1COc1cc(C#N)cc(Nc2ncc3c(n2)CCCCC3=O)c1` [Compound 0122] is less than 1 µM; for `N#Cc1cc(Nc2ncc3c(n2)CCCCC3=O)cc(OCc2cnoc2)c1` [Compound 0123] it is less than 1 µM. `N#Cc1cc(Nc2ncc3c(n2)CCCCC3=O)cc(OCC2CCOCC2)c1` [Compound 0124] showed an IC50 of less than 1 µM. On the same count and under the same terms, under `COCCOc1cc(C#N)cc(Nc2ncc3c(n2)CCCCC3=O)c1` [Compound 0125] stands less than 1 µM; under `N#Cc1cc(Nc2ncc3c(n2)CCCCC3=O)cc(OCCN)c1` [Compound 0128], 1 to 1000 µM; under `N#Cc1cc(Nc2ncc3c(n2)CCCNC3=O)cs1` [Compound 0135], 1 to 1000 µM. On the same count and under the same terms, the figure for `N#Cc1cc(Nc2ncc3c(n2)CCCCC3C(C#N)C#N)cs1` (stereo not drawn) [Compound 0136] is 1 to 1000 µM; for `CCCc1cc(C#N)cc(Nc2ncc3c(n2)CCCCC3=O)c1` [Compound 0161] it is 1 to 1000 µM. As for `CCCCc1cc(C#N)cc(Nc2ncc3c(n2)CCCCC3=O)c1` [Compound 0162], the IC50 lay within 1 to 1000 µM. On the same count and under the same terms, under `N#Cc1cc(CS(=O)(=O)C(F)(F)F)cc(Nc2ncc3c(n2)CCCCC3=O)c1` [Compound 0163] stands 1 to 1000 µM.

As to `Cc1cccc(Nc2ncc3c(n2)CCCC3=O)c1` [KG-0051-0], the IC50 under setting [1] fell in the range of 1 to 1000 µM. As to `Cc1cccc(Nc2ccc3c(n2)CCCC3=O)c1` [KG-0052], the IC50 is greater than 1000 µM.

Take `Cc1cccc(Nc2ccc3c(c2)CCCC3=O)c1` [KG-0054]: the IC50 was greater than 1000 µM. With `Cc1cccc(Nc2ncc3c(n2)CCNC3=O)c1` [KG-0055-0], the IC50 was in the range of 1 to 1000 µM.

In turn, `Cc1ccccc1Nc1ncc2c(n1)CCCC2=O` [KG-0056-0A] yielded an IC50 under setting [1] of 1 to 1000 µM. For the compound `Cc1cccc(Nc2ccc3c(c2)CCNC3=O)c1` [KG-0057], the IC50 is greater than 1000 µM. The compound `Cc1cccc(Nc2ncc3c(n2)CCCC3=O)c1C` [KG-0060-0] showed an IC50 under setting [1] greater than 1000 µM. Still for that read-out and setting: under `O=C1CCCc2nc(Nc3cccc(F)c3)ncc21` [KG-0061-0] stands less than 1 µM; under `N#Cc1cccc(Nc2ncc3c(n2)CCCC3=O)c1` [KG-0062-0], less than 1 µM. The same measure, in the same setting: the figure for `O=C1CCCc2nc(Nc3cccc(C(F)(F)F)c3)ncc21` [KG-0063-0] is 1 to 1000 µM; for `COC(=O)c1cccc(Nc2ncc3c(n2)CCCC3=O)c1` [KG-0064-0] it is 1 to 1000 µM. Same read-out and setting: the figure for `O=C1CCCc2nc(Nc3cccc(Cl)c3)ncc21` [KG-0065-0] is less than 1 µM. `Cc1cccc(Nc2ncc3c(n2)CCC3=O)c1` [KG-0138-0]: the 50% inhibitory concentration (IC50) under setting [1] was in the range of 1 to 1000 µM. Turning to `Cc1cccc(Oc2ncc3c(n2)CCCC3=O)c1` [KG-0141-0], the half-maximal inhibitory concentration (IC50) is greater than 1000 µM. On the same count and under the same terms, under `O=C1CCCc2nc(NCc3cccnc3)ncc21` [KG-0162-0] stands 1 to 1000 µM.

As for `O=C1CCCc2nc(NCc3ccncc3)ncc21` [KG-0163-0], the IC50 was in the range of 1 to 1000 µM. `O=C1CCCc2nc(NCc3ccccc3)ncc21` [KG-0164-0] showed an IC50 under setting [1] of 1 to 1000 µM. The same measure, in the same setting: the figure for `CC(Nc1ncc2c(n1)CCCC2=O)c1ccccc1` (stereo not drawn) [KG-0165-0] is 1 to 1000 µM and > 1000 µM; for `O=C1CCCc2nc(Nc3ccc4cc[nH]c4c3)ncc21` [KG-0166-0] it is 1 to 1000 µM; for `O=C1CCCc2nc(Nc3cccc(Br)c3)ncc21` [KG-0167-0A] it is 1 to 1000 µM.

For the compound `O=C1CCCc2nc(Nc3cccc(Br)c3)ncc21` [KG-0167], the IC50 under setting [1] was 1 to 1000 µM. For `O=C1CCCc2nc(Nc3ccc4[nH]ccc4c3)ncc21` [KG-0168-0], under setting [1], the IC50 lay in the range of 1 to 1000 µM. The same measure, in the same setting: the figure for `CN(c1cccc(C#N)c1)c1ncc2c(n1)CCCC2=O` [KG-0176] is greater than 1000 µM. Same read-out and setting: under `C#Cc1cccc(Nc2ncc3c(n2)CCCC3=O)c1` [KG-0183-0] stands 1 to 1000 µM; under `N#Cc1cccc(Nc2ncc3c(n2)CCCCC3=O)c1` [KG-0184-0A], less than 1 µM. The same measure, in the same setting: the figure for `COc1cccc(Nc2ncc3c(n2)CCCC3=O)c1` [KG-0185-0] is 1 to 1000 µM. The compound `O=C1CCCc2nc(Nc3cccc(O)c3)ncc21` [KG-0186-0A] had an IC50 under setting [1] of less than 1 µM. Still for that read-out and setting: under `O=C1CCCc2nc(Nc3ccccc3)ncc21` [KG-0187-0] stands 1 to 1000 µM; under `Cc1ccc(Nc2ncc3c(n2)CCCC3=O)cc1C` [KG-0188-0], 1 to 1000 µM.

Turning to `N#Cc1cccc(Nc2ncc3c(n2)COCC3=O)c1` [KG-0190-0], the IC50 lay in the range of 1 to 1000 µM.

Take `N#Cc1cncc(Nc2ncc3c(n2)CCCC3=O)c1` [KG-0198-0]: the IC50 was in the range of 1 to 1000 µM.

`O=C1CCCc2nc(Nc3cccc(C4CC4)c3)ncc21` [KG-0203-0] registered an IC50 under setting [1] of 1 to 1000 µM. On the same count and under the same terms, under `CC#Cc1cccc(Nc2ncc3c(n2)CCCC3=O)c1` [KG-0204-0] stands 1 to 1000 µM; under `CC1CCc2nc(Nc3cccc(C#N)c3)ncc2C1=O` (stereo not drawn) [KG-0205-0], less than 1 µM; under `N#Cc1cccc(Nc2ncc3c(n2)CCC(Br)C3=O)c1` (stereo not drawn) [KG-0206-0], less than 1 µM. Take `O=C1CCCc2nc(Nc3nc4ccccc4[nH]3)ncc21` [KG-0209-0]: under setting [1], the IC50 is 1 to 1000 µM.

`O=C1CCCc2nc(Nc3nc4ccccc4s3)ncc21` [KG-0211-0] had an IC50 under setting [1] greater than 1000 µM.

In turn, `O=C1CCCc2nc(Nc3ncco3)ncc21` [KG-0213-0] showed an IC50 greater than 1000 µM. The same measure, in the same setting: under `O=C1CCCc2nc(Nc3nccs3)ncc21` [KG-0214-0] stands 1 to 1000 µM. Turning to `O=C1CCCc2nc(Nc3ccon3)ncc21` [KG-0215-0], under setting [1], the IC50 lay within 1 to 1000 µM. The same measure, in the same setting: under `O=C1CCCc2nc(Nc3cc[nH]n3)ncc21` [KG-0216-0] stands greater than 1000 µM. In the case of `Cc1csc(Nc2ncc3c(n2)CCCC3=O)n1` [KG-0219-0], the IC50 fell in the range of 1 to 1000 µM. Same read-out and setting: the figure for `Cc1cc(Nc2ncc3c(n2)CCCC3=O)no1` [KG-0220-0] is 1 to 1000 µM. Compound `O=C1CCCc2nc(Nc3ccc4nc[nH]c4c3)ncc21` [KG-0223-0] returned an IC50 under setting [1] of 1 to 1000 µM.
